Reference: patent publication US20190161418A1, “OIL-SOLUBLE PLANT MICRONUTRIENTS” (Huntsman Petrochemical LLC, priority 2016, published 2019)

System: corn seedlings
Assay: Zinc uptake measurements in corn seedlings (foliar spray, ICP-MS)
Format: in vivo
Details: corn seedling aerial tissue 48 hours after spray; normalized to water control (set as 1); average of two trials; ZnSO4 1 lb Zn/acre, Zn-LAS/MSO and Zn-EDTA 0.15 lb Zn/acre, Ca-LAS/MSO 1.07 g/L
Description: In this example, the Zn salt of linear alkylbenzene sulfonate from example 1 was sprayed on corn seedlings that were grown in potting soil and zinc uptake into the plant leaves was measured and compared to uptake of other forms of zinc as described below. The samples that were analyzed were prepared by spraying the leaves with the particular formulation, drying the leaves after spraying, grinding the leaves, digesting them in aqua regia and measuring the concentration of zinc in solution by inductively coupled plasma mass spectrometry (ICP-MS). Spray treatment formulations were prepared as follows, based on an average delivery of 3.3 mL solution per 4 inch square pot (16 in^2 treated area): • a) deionized water only • b) Ca-LAS/MSO: 1.07 g/L in deionized water • c) ZnSO4: 1.02 g/L ZnSO4 in deionized water to approximate the recommended use rate of 1 lb Zn in 20 gallons solution per acre • d) Zn-LAS/MSO (5% w/w Zn, density 1.02 g/mL): 1.07 g/L in deionized water to approximate a use rate of 0.15 lb Zn in 20 gallons solution per acre • e) Zn-EDTA (9% w/w Zn, density 1.31 g/mL): 0.59 g/L in deionized water to approximate the recommended use rate of 0.15 lb Zn in 20 gallons solution per acre.
After 48 hours of incubation, each seedling was cut just above the soil line and the aerial tissue was used for analysis. […]

## O=S(=O)([O-])[O-].[Zn+2] [ZnSO4]
  Relative Zinc Concentration: 2.01
